Measured values published in publication PMC12051620, “Molecular basis underlying the specificity of an antagonist AA92593 for mammalian melanopsins” (The Journal of Biological Chemistry, 2025).

Target: lanceolatum melanopsin F189^ECL2W/I207^5.42F mutant (Branchiostoma lanceolatum, UniProt A0A2Z4C1D4, F188W/I204F)
Experiment: GsX GloSensor assay with Gsα/q11
Format: cell-based
From the text: We assessed the effect of the antagonist on the mutants using the GsX GloSensor assay with Gsα/q11. […] Furthermore, the double substitution F189^ECL2W/I207^5.42F further increased the susceptibility of the lanceolatum melanopsin to the antagonist by ∼88% (Fig. 7, G, H, and I). The AA92593-induced inhibition of the double mutant F189^ECL2W/I207^5.42F was as efficient as that of human melanopsin (Fig. 7I). […] Taken together, the introduction of Trp-189^ECL2 and Phe-207^5.42 rendered lanceolatum melanopsin highly sensitive to the antagonist (Fig. 7, G, H, and I).
For GloSensor assay, opsins, GloSensor assay sensor (coded by pGlo-22F), and NanoBiT-tagged G proteins were transiently expressed in COS-1 cells (kindly provided from Dr David Farrens, Oregon Health and Science University) using PEI as described previously ([24], [52]). For the GsX GloSensor assay ([12], [13]), each well of a 96-well assay plate (Corning) was transfected with 50 ng opsin plasmid, 16.7 ng G protein plasmid, 50 ng pGlo-22F plasmid (Promega), and 500 ng PEI in 25 μl Opti-mem and 75 μl Dulbecco's modified Eagle's medium (D-MEM). For NanoBiT G protein dissociation assay, each well of a 96-well assay plate was transfected with 50 ng opsin plasmid, 5 ng Lg-BiT inserted Gqα (Gqα-LgBiT) plasmid, 25 ng Gβ1 plasmid, 25 ng Sm-BiT fused Gγ2 plasmid, 5 ng RIC8A plasmid, and 500 ng PEI in 25 μl Opti-mem and 75 μl D-MEM. For GFP-fluorescence microscopy, a 35-mm cell culture dish (IWAKI) was transfected with 2 μg melanopsin-GFP plasmid and 8 μg PEI in 400 μl Opti-mem and 1.2 ml D-MEM. […]
The transfected COS-1 cells were incubated at 37 °C, 5% CO2 for 2 days, and the medium was aspirated and exchanged with 50 μl of HBSS (145 mM NaCl, 10 mM D-glucose, 5 mM KCl, 1 mM MgCl2, 1.7 mM CaCl2, 1.5 mM NaHCO3, 10 mM Hepes, pH 7.4), containing 33.3, 20, 10, 2, 0.2, 0.02, 0.002, or 0 μM AA92593, 0.5% dimetyl sulfoxide (DMSO), and 4% (vol/vol) GloSensor cAMP reagent stock solution. […] Then, the cells were incubated at room temperature for 1 h, and luminescence changes were monitored. After incubation of the cells with AA92593, luminescence measurement was interrupted, the plate was ejected, and the cells were added with 50 μl of HBSS containing 0.2 μM 9-cis-retinal. […] Luminescence was measured using GM-2000 or GM-3510 microplate reader (Promega). Luminescence level of each well was measured every 30 s with integration time of 0.6 to 0.9 s. To illuminate opsins, luminescence measurement was interrupted, the plate was ejected, and the plate was illuminated by white light with CN-160 LED video light (light intensity, ∼9 mW/cm^2) (NEEWER). […] After illumination, luminescence measurement was resumed. The measured luminescence levels were normalized to the level at the starting point (time = 0 min). […]

[1] = relative peak cAMP response vs no AA92593

lanceolatum melanopsin F189^ECL2W/I207^5.42F mutant, sequence (A0A2Z4C1D4 entry or part of it F188W/I204F): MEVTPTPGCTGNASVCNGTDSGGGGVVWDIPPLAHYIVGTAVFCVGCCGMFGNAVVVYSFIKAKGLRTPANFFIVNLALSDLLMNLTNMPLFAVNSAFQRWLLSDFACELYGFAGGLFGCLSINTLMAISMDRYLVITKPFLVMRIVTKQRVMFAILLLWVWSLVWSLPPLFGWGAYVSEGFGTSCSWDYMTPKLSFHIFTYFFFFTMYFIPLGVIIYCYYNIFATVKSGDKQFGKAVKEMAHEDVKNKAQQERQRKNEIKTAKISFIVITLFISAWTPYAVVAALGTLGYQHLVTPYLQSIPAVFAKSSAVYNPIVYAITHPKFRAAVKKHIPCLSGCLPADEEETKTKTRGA

What does the source list for `COc1ccc(S(=O)(=O)N2CCCCC2)cc1C` [AA92593]?
Hill fitting parameter rate of dose-response curve: −0.84 ± 0.75; IC50: 1400 ± 880 nM; Hill fitting parameter max of dose-response curve [1]: 107.65 ± 12.6; Hill fitting parameter min of dose-response curve [1]: −5.22 ± 4.53
